In patent EP0062018A1, “Novel phenyl-piperidines” (priority 1981, dated 1982):
Structures can show the parent of a compound that is named as a salt. Where two headings read alike, the source gives them in different places.

Columns and labels:
[1] = system: rabbit right ventricle papillary muscle; experiment: Positive inotropic effect (contractility) in isolated electrically driven papillary muscle; format: cell-based; conditions: Oryctolagus cuniculus; for Emax: papillary muscle, read-out: Tmax ISA; for EC50: rabbit right ventricle papillary muscle, read-out: Tmax EC50
Experimental: (§1) Pharmacological studies on cardiac effects on heart frequency and contractility in isolated right atria and papillary muscle from rabbit. Rabbits with an average weight of 2.5 kg were killed by a blow and the hearts were rapidly removed. The right atria and a papillary muscle from the right ventricle were isolated and set up to contract isometrically in an organ bath. The bath contained 50 ml Krebs-buffer (pH 7.4) and the temperature was kept at 32°C. The contractions were measured by means of a force displacement transducer (Grass Model FT03) coupled to a Grass Model 7 Polygraph with a […] (Grass Model 7PIF). The spontaneously beating right atria was stretched to a resting tension high enough to measure the contractions and to trigger a tachograph for registration of the frequency. The papillary muscle was stretched to the length at which maximal tension was developed and was driven at a frequency of 1 Hz by a current 20 per cent above treshold and with a duration of 5 msec. After 60 min. equilibration, dose response curves to cumulative concentrations of isoprenaline were constructed for chronotropic effect, i.e. increase in frequency (atria) and positive inotropic effect, i.e. increase in contractility (papillary muscle). After wash-out similar curves were constructed for the compounds according to the invention. The positive inotropic agent dopamine was included for comparison. In order to establish the maximal chronotropic and inotropic responses of the preparations, isoprenaline was added immediately after the maximal concentrations of the compounds. The maximal effects of the compounds compared with the maximal effect of isoprenaline are expressed as intrinsic activity (ISA).

rabbit right atria = experiment: Chronotropic effect (heart frequency) in isolated spontaneously beating right atria; format: cell-based; conditions: for Emax / EC50: Oryctolagus cuniculus, rabbit right atria, heart rate; for Emax: read-out: HR ISA; for EC50: cumulative concentrations, Krebs-buffer pH 7.4, 32°C, read-out: HR EC50; for positive chronotropic effect: result in words, isolated rabbit right atria
Experimental: as §1

[2] = Tested after β-blockade, intrinsic activity vs isoprenaline
[3] = intrinsic activity: maximal effect compared with maximal effect of isoprenaline
[4] = driven at 1 Hz, Krebs-buffer pH 7.4, 32°C

| Compound | Emax [1, 2] [%] | EC50 ([1]; Tested after β-blockade) [µM] | Emax (rabbit right atria; [2]) [%] | Emax [1, 3] [%] | EC50 [1, 4] [µM] | Emax (rabbit right atria; [3]) [%] | EC50 (rabbit right atria) [µM] | positive chronotropic effect (rabbit right atria) |
| --- | --- | --- | --- | --- | --- | --- | --- | --- |
| CC(C)N1CCCC(c2cc(O)cc(O)c2)C1 (centres unmarked) [Example 7] | 26 | 43 | 0 |  |  |  |  |  |
| CC(C)NCC(O)c1ccc(O)c(O)c1 (centres unmarked) [Isoprenaline, reference compound] |  |  |  | 100 | 0.01 | 100 | 0.003 | marked positive chronotropy in doses significantly lower than those producing positive inotropy |
| CCCCCN1CCCC(c2cc(O)cc(O)c2)C1 (centres unmarked) [Example 6] |  |  |  | 43 | 0.24 | 0 |  |  |
| CN1CCCC(c2cc(O)cc(O)c2)C1 (centres unmarked) [Example 3, 3-(3,5-Dihydroxyphenl)-N-methlpiperidine] |  |  |  | 37 | 11 | 0 |  |  |
| NCCc1ccc(O)c(O)c1 [Dopamine, reference compound] |  |  |  | 78 | 19.7 | 91 | 14.2 | marked positive chronotropic effect in doses which caused positive inotropy |
| CCN1CCCC(c2cc(O)cc(O)c2)C1 (centres unmarked) [Example 2, 3-(3,5-Dihydroxyehenyl)-N-ethylpiperidine hydrobromide] |  |  |  | 32 | 298 | 0 |  |  |
| CCCCN1CCCC(c2cc(O)cc(O)c2)C1 (centres unmarked) [Example 5] | 42 | 18.4 | 0 |  |  |  |  |  |
| CCCN1CCCC(c2cc(O)cc(O)c2)C1 (centres unmarked) [Example 1, 3=(3,5=Dihydroxyehenyl)N-n-eroeyleiperidine hydrobromide] |  |  |  | 30 | 107 | 0 |  | no positive chronotropic effect |
